Measurements reported in US7741472B2, “Polynucleotide containing a phosphate mimetic” (Roche Diagnostics Operations, Inc., priority 2005, dated 2010).
Strand notation (5' to 3'): a small letter for the sugar, then the base; units joined by * are phosphorothioate-linked, units joined directly phosphodiester-linked; [ ] holds rarer units or linkages, { } end groups; capitals alone tell only the bases. [PNAc] = P=N-pPh-NAc phosphoramidate mimetic linkage (p1); {Fluorescein} = fluorescein label; d = 2'-deoxy (DNA)

Experiments:
[1] = test system: factor V wild type sequence; experiment: Melting curve analysis of donor probes, wild type; assay type: binding; conditions: melting temperature of donor probe for factor V wild type sequence; in °C (unit assumed)
Protocol: (§1) A quantitative real time PCR of factor V DNA with subsequent melting curve analysis was carried out on a LIGHTCYCLER 1.2 instrument (Roche Diagnostics GmbH) in order to analyse the effect of phosphate mimetics on hybridization. Primers were used in combination with a pair of fluorescein/LIGHTCYCLER Red 640 FRET hybridization probes. The primers and the 5′ LIGHTCYCLER Red 640 probe were kept constant. The various 3′ fluorescein probes modified on the phosphate from example 4 and the unmodified fluorescein probe as a reference were used as FRET donor probes. The effect on the crossing point which is a measure for the amplification efficiency and the effect on the melting point were evaluated.
After the amplification a melting curve analysis was carried out according to the instructions of the LIGHTCYCLER manual (Roche Applied Sciences).
(§2) The following temperature program was used:
(§3) The absolute fluorescence signals are measured as above in the 640 nm channel and subsequently the first derivative was calculated from this.
(§4) The crossing points are shown in the following table as a measure for the amplification efficiency when using different modified donor probes.

[2] = test system: factor V DNA; experiment: Real time PCR of factor V DNA with modified FRET donor probes (crossing point); assay type: biochemical; conditions: LIGHTCYCLER 1.2, 106 copies of plasmid, 200 nM FRET probes, 640 nm channel
Protocol: as §1
20 μl of a PCR reaction mixture was prepared as follows for the amplification of a factor V DNA fragment.
106 copies of a plasmid which contains the factor V wild type gene and mutants (Gene Bank Accession No. M 014335)
500 nM each primers having the SEQ ID NO: 1 and 2
200 nM each FRET hybridization probes having the SEQ ID NO: 3 and 4
The LIGHTCYCLER DNA Master Hyb Probes Kit (Roche Applied Science, Cat. No. 2158825) was used for all other PCR components according to the manufacturer's instructions.
The following sequences were used as primers and probes: […]
The following temperature program was used for the amplification on the LIGHTCYCLER 1.2 (Roche Applied Science).
(§5) The real time monitoring was carried out over 45 cycles using the 2nd derivative threshold method in which the fluorescence signal was measured in a detection channel that is specific for the LIGHTCYCLER Red 640 emission (at 640 nm) and the arithmetic background correction mode was used to normalize the initial signal.
as §4

[3] = test system: factor V mutant sequence; experiment: Melting curve analysis of donor probes, mutant; assay type: binding; conditions: melting temperature of donor probe for factor V mutant sequence; in °C (unit assumed)
Protocol: as §1, with “LIGHTCYCLER” left out, “fluorescein/[…]” for “fluorescein/LIGHTCYCLER”, “The various 3′ fluorescein probes modified on the phosphate from example 4 and the unmodified fluorescein probe as a reference were used as FRET donor probes.” left out
After the amplification a melting curve analysis was carried out according to the instructions of the […] manual (Roche Applied Sciences).
as §2, §3

[4] = test system: human Factor V DNA; experiment: Real time PCR with modified primers (crossing point); assay type: biochemical; conditions: LIGHTCYCLER 1.2, primer combinations SEQ ID NO: 1 / SEQ ID NO: 2, 640 nm channel
Protocol: A quantitative real time PCR of human Factor V DNA was carried out on a LIGHTCYCLER 1.2 instrument (Roche Diagnostics GmbH) in order to analyse the effect of phosphate mimetics on primer elongation. The P═N-pPh-NAc mimetic which was introduced at different positions of a primer pair used for amplification of human Factor V DNA. The modified primers were, synthesized according to example 4. Purification was done by the Reversed Phase chromatography of example 3 in the Trityl on mode. Detritylation was performed by treating with 80% acetic acid for 20 min.
This primers were used in combination with a pair of fluorescein/LIGHTCYCLER Red 640 FRET hybridization probes according to example 6. The Fluorescein probe and the 5′ LIGHTCYCLER Red 640 probe (SEQ ID NO: 3 and 4) were kept constant. Various combinations of modified and unmodified primers were tested. As reference unmodified primers were used. The effect on the crossing point which is a measure for the amplification efficiency was evaluated.
as §5, with “which,” for “which”
The absolute fluorescence signals are measured as above in the 640 nm channel and subsequently the first derivative was calculated from this. The crossing points are shown in the following table as a measure for the amplification efficiency when using different modified primers.

[5] = Stability of dinucleotides at different temperatures and pH, reverse phase HPLC; assay type: physicochemical; conditions: for stability: pH 7.0, 8.0 and 9.0, 24 h at rt, 1 h at 95° C.
Protocol: dA(P(═NSO2PhNHAc)dT was synthesized and purified according to example 1) dAdT was also synthesized according to example 1, but standard oxidizers were used (0.02 M iodine in THF).
The dimers were exposed for different times and temperatures in 10 mM Tris buffer at different pH values 7.0, 8.0, and 9.0. Samples were left at room temperature (approx. 24° C.) for 24 h or at 95° C. for 60 min respectively 16 h. 150 μL aliquots were removed before and after the experiment and 100 μL volumes were injected on the HPLC.
The decomposition was monitored by reverse phase HPLC on an analytical X-Bridge column (2.5 μm, 4.6×50 mm i.d.) with a Waters 2690 separation module. Detection was carried out with a Waters 2996 PAD Detector (260 nm). A mobile phase of 0.1 M triethylammonium acetate (pH 6.8) pumped with a 95% gradient of acetonitrile at flow rate of 1.0 ml/min was used. The destruction rate of the dimers was judged by monitoring the retention time rt of the dimer signal (Software Millenium, Waters) and determining whether additional peaks with retention times different than that, of the nucleotide dimer occur.

[6] = pH 7.0, 10 mM Tris, 1 h at 95° C. (dry oven)
[7] = pH 7.0, 10 mM Tris, 16 h at 95° C. (dry oven)
[8] = pH 7.0, 10 mM Tris, 24 h at rt (24° C.)
[9] = pH 7.0, 10 mM Tris, starting solution
[10] = pH 8.0, 10 mM Tris, 1 h at 95° C. (dry oven)
[11] = pH 8.0, 10 mM Tris, 16 h at 95° C. (dry oven)
[12] = pH 8.0, 10 mM Tris, 24 h at rt (24° C.)
[13] = pH 8.0, 10 mM Tris, starting solution
[14] = pH 9.0, 10 mM Tris, 1 h at 95° C. (dry oven)
[15] = pH 9.0, 10 mM Tris, 16 h at 95° C. (dry oven)
[16] = pH 9.0, 10 mM Tris, 24 h at rt (24° C.)
[17] = pH 9.0, 10 mM Tris, starting solution

5′ AATACCTGp1TATTCCTCp1GCCTGTC-fluorescein-3′: Example 4 fluorescein probe SEQ ID NO: 4, two-fold modified; p1 is a P = N-pPh-NAc mimetic (DNA dAdAdTdAdCdCdTdG[PNAc]dTdAdTdTdCdCdTdC[PNAc]dGdCdCdTdGdTdC-{Fluorescein})
Tm wt [1]: 64.28 | Cp (crossing point, measure for the amplification efficiency) [2]: 22.26 | Tm mt [3]: 55.89

5′ AATACCTGTATTp1Cp1Cp1Tp1Cp1Gp1Cp1Cp1Tp1Gp1Tp1C-fluorescein-3′: Example 4 fluorescein probe SEQ ID NO: 4, multiply modified; p1 is a P = N-pPh-NAc mimetic (DNA dAdAdTdAdCdCdTdGdTdAdTdT[PNAc]dC[PNAc]dC[PNAc]dT[PNAc]dC[PNAc]dG[PNAc]dC[PNAc]dC[PNAc]dT[PNAc]dG[PNAc]dT[PNAc]dC-{Fluorescein})
Tm wt [1]: 60.74 | Cp (crossing point, measure for the amplification efficiency) [2]: 21.91 | Tm mt [3]: 52.14

5′ GAGAGACATCGCCTCTGGGCT p1A / 5′ TGTTATCACACTGGTGCTAA: primer combination; p1 is a P = N-pPh-NAc mimetic
Cp (crossing point, measure for the amplification efficiency) [4]: 20.80

dAdT
decomposition ([5]; after 16 h at pH 7.0 and pH 8.0): started decomposing | rtHPLC (retention time of the dimer signal) [5, 6]: rtHPLC = 2.48 | additional peaks (decomposition) [5, 7]: 1 new peak t = 6.2 | rtHPLC (retention time of the dimer signal) [5, 7]: rtHPLC = 2.42 | rtHPLC (retention time of the dimer signal) [5, 8]: rtHPLC = 2.39 | rtHPLC (retention time of the dimer signal) [5, 9]: rtHPLC = 2.39 | stability [5]: stable | rtHPLC (retention time of the dimer signal) [5, 10]: rtHPLC = 2.42 | additional peaks (decomposition) [5, 11]: 1 new peak 6.2 | rtHPLC (retention time of the dimer signal) [5, 11]: rtHPLC = 2.41 | rtHPLC (retention time of the dimer signal) [5, 12]: rtHPLC = 2.38 | rtHPLC (retention time of the dimer signal) [5, 13]: rtHPLC = 2.38 | rtHPLC (retention time of the dimer signal) [5, 14]: rtHPLC = 2.42 | rtHPLC (retention time of the dimer signal) [5, 15]: rtHPLC = 2.43 | rtHPLC (retention time of the dimer signal) [5, 16]: rtHPLC = 2.41 | rtHPLC (retention time of the dimer signal) [5, 17]: rtHPLC = 2.41

5′ Ap1ATACCTGTATTCCTCGCCTGTC fluorescein-3′: Example 4 fluorescein probe SEQ ID NO: 4; p1 is a P = N-pPh-NAc mimetic (DNA dA[PNAc]dAdTdAdCdCdTdGdTdAdTdTdCdCdTdCdGdCdCdTdGdTdC-{Fluorescein})
Tm wt [1]: 64.80 | Cp (crossing point, measure for the amplification efficiency) [2]: 22.51 | Tm mt [3]: 56.80

5′ AATACCTGTATTCCTCGCCTGTC-fluorescein-3′ (ref): unmodified fluorescein FRET donor probe SEQ ID NO: 4, used as a reference (DNA dAdAdTdAdCdCdTdGdTdAdTdTdCdCdTdCdGdCdCdTdGdTdC-{Fluorescein}) [reference compound]
Tm wt [1]: 64.92 | Cp (crossing point, measure for the amplification efficiency) [2]: 22.11 | Tm mt [3]: 56.98

dA(P(═NSO2PhNHAc)dT [dA(P(=NSO2PhNHAc)dT]
decomposition ([5]; after 16 h at 95° C. at pH 7.0): started decomposing | rtHPLC (retention time of the dimer signal) [5, 6]: rtHPLC = 2.99 | additional peaks (decomposition) [5, 7]: 2 new peaks t = 1.2, 2.0. | rtHPLC (retention time of the dimer signal) [5, 7]: rtHPLC = 2.99 | rtHPLC (retention time of the dimer signal) [5, 8]: rtHPLC = 2.93 | rtHPLC (retention time of the dimer signal) [5, 9]: rtHPLC = 2.93 | stability [5]: stable | rtHPLC (retention time of the dimer signal) [5, 10]: rtHPLC = 2.92 | rtHPLC (retention time of the dimer signal) [5, 11]: rtHPLC = 2.92 | rtHPLC (retention time of the dimer signal) [5, 12]: rtHPLC = 2.96 | rtHPLC (retention time of the dimer signal) [5, 13]: rtHPLC = 2.96 | rtHPLC (retention time of the dimer signal) [5, 14]: rtHPLC = 2.95 | rtHPLC (retention time of the dimer signal) [5, 15]: rtHPLC = 2.95 | rtHPLC (retention time of the dimer signal) [5, 16]: rtHPLC = 2.92 | rtHPLC (retention time of the dimer signal) [5, 17]: rtHPLC = 2.92

5′ Ap1Ap1Tp1Ap1Cp1Cp1Tp1Gp1Tp1Ap1Tp1TCCTCGCCTGTC-fluorescein-3′: Example 4 fluorescein probe SEQ ID NO: 4, multiply modified; p1 is a P = N-pPh-NAc mimetic (DNA dA[PNAc]dA[PNAc]dT[PNAc]dA[PNAc]dC[PNAc]dC[PNAc]dT[PNAc]dG[PNAc]dT[PNAc]dA[PNAc]dT[PNAc]dTdCdCdTdCdGdCdCdTdGdTdC-{Fluorescein})
Tm wt [1]: 60.69 | Cp (crossing point, measure for the amplification efficiency) [2]: 21.40 | Tm mt [3]: 52.19

5′ Ap1Ap1Tp1ACCTGTATp1Tp1Cp1CTCGCCTp1Gp1Tp1C-fluorescein-3′: Example 4 fluorescein probe SEQ ID NO: 4, multiply modified; p1 is a P = N-pPh-NAc mimetic (DNA dA[PNAc]dA[PNAc]dT[PNAc]dAdCdCdTdGdTdAdT[PNAc]dT[PNAc]dC[PNAc]dCdTdCdGdCdCdT[PNAc]dG[PNAc]dT[PNAc]dC-{Fluorescein})
Tm wt [1]: 61.40 | Cp (crossing point, measure for the amplification efficiency) [2]: 22.00 | Tm mt [3]: 52.83

5′ GAGAGACATCGCCTCTGGGCTA / 5′ TGT TAT CAC ACT p1GGT GCT AA: primer combination; p1 is a P = N-pPh-NAc mimetic
Cp (crossing point, measure for the amplification efficiency) [4]: 21.36

5′ AATACCTGTATTCCTCGCCTGTp1C fluorescein-3′: Example 4 fluorescein probe SEQ ID NO: 4; p1 is a P = N-pPh-NAc mimetic (DNA dAdAdTdAdCdCdTdGdTdAdTdTdCdCdTdCdGdCdCdTdGdT[PNAc]dC-{Fluorescein})
Tm wt [1]: 64.32 | Cp (crossing point, measure for the amplification efficiency) [2]: 22.61 | Tm mt [3]: 56.26
